Source: ChEMBL document CHEMBL5120927, “LEGO-Lipophosphonoxins: A Novel Approach in Designing Membrane Targeting Antimicrobials” (J Med Chem, 2022)
Calls of active or inactive are those of the source. The calls are words filed in the database; no cut-off is given here.

What was measured:
Staphylococcus aureus [1] = assay: Antibacterial activity against wild type Staphylococcus aureus 4679/B assessed as reduction in microbial growth incubated for 24 hrs by microdilution assay; format: functional
[2] = Toxicity in human epidermis model assessed as skin irritation incubated for 42 hrs; format: tissue-based
[3] = Toxicity in human cornea epidermis model assessed as tissue viability pretreated for 1 hr and measured after 42 hrs by MTT assay relative to control; format: tissue-based; settings: read-out: Activity
Enterococcus faecium = assay: Antibacterial activity against vancomycin resistant Enterococcus faecium 419/ANA assessed as reduction in microbial growth incubated for 24 hrs by microdilution assay; format: functional
Staphylococcus aureus [4] = assay: Antibacterial activity against wild type Staphylococcus aureus 4561/A assessed as reduction in microbial growth incubated for 24 hrs by microdilution assay; format: functional
Pseudomonas aeruginosa [5] = assay: Antibacterial activity against multidrug-resistant Pseudomonas aeruginosa assessed as reduction in microbial growth incubated for 24 hrs by microdilution assay; format: functional
Escherichia coli [6] = assay: Antibacterial activity against Escherichia coli ATCC 25922 = CCM 3954 assessed as inhibition of bacterial growth incubated for 24 hrs by microdilution assay; format: functional
Staphylococcus aureus [7] = assay: Antibacterial activity against wild type Staphylococcus aureus 4883/C assessed as reduction in microbial growth incubated for 24 hrs by microdilution assay; format: functional
Staphylococcus aureus [8] = assay: Antibacterial activity against wild type Staphylococcus aureus 4502/A assessed as reduction in microbial growth incubated for 24 hrs by microdilution assay; format: functional
Staphylococcus aureus [9] = assay: Antibacterial activity against methicillin resistant Staphylococcus aureus 4591/A assessed as reduction in microbial growth incubated for 24 hrs by microdilution assay; format: functional
Staphylococcus aureus [10] = assay: Antibacterial activity against Staphylococcus aureus ATCC 29213 = CCM 4223 assessed as inhibition of bacterial growth incubated for 24 hrs in presence of BSA by microdilution assay; format: functional
[11] = Cytotoxicity against human HepG2 cells assessed as reduction in cell viability; format: toxicity, cell-based
Cell membrane [12] = assay: Induction of cell envelope damage in Staphylococcus aureus assessed as tubular structure at 8 mg/L measured after 8 hrs by scanning electron microscope analysis
Staphylococcus aureus [13] = assay: Bactericidal activity against Staphylococcus aureus CCM 4223 assessed as reduction in viable cell count measured after 24 hrs by Time kill assay; format: functional, organism-based; settings: DDE = dose-dependent effect
Enterococcus faecalis = assay: Antibacterial activity against Enterococcus faecalis ATCC 29212 = CCM 4224 assessed as inhibition of bacterial growth incubated for 24 hrs by microdilution assay; format: functional
Staphylococcus aureus [14] = assay: Antibacterial activity against wild type Staphylococcus aureus 4482/A assessed as reduction in microbial growth incubated for 24 hrs by microdilution assay; format: functional
[15] = Toxicity in human cornea epidermis model assessed as eye irritation incubated for 42 hrs; format: tissue-based
Cell membrane [16] = assay: Induction of cell envelope damage in Staphylococcus aureus assessed as loss of cell integrity at 8 mg/L measured after 8 hrs by scanning electron microscope analysis; format: subcellular
Staphylococcus aureus [17] = assay: Antibacterial activity against wild type Staphylococcus aureus 4557/A assessed as reduction in microbial growth incubated for 24 hrs by microdilution assay; format: functional
Staphylococcus aureus [18] = assay: Antibacterial activity against wild type Staphylococcus aureus 4788/B assessed as reduction in microbial growth incubated for 24 hrs by microdilution assay; format: functional
Staphylococcus aureus [19] = assay: Antibacterial activity against […] Staphylococcus aureus 4463/A assessed as reduction in microbial growth incubated for 24 hrs by microdilution assay; format: functional
Cell membrane [20] = assay: Induction of cell envelope damage in Staphylococcus aureus assessed as loss of cytoplasmic content at 8 mg/L measured after 8 hrs by scanning electron microscope analysis; format: subcellular
Staphylococcus aureus [21] = assay: Antibacterial activity against wild type Staphylococcus aureus 4738/B assessed as reduction in microbial growth incubated for 24 hrs by microdilution assay; format: functional
Staphylococcus aureus [22] = assay: Antibacterial activity against wild type Staphylococcus aureus 77/CF assessed as reduction in microbial growth incubated for 24 hrs by microdilution assay; format: functional
Staphylococcus aureus [23] = assay: Antibacterial activity against […] Staphylococcus aureus 4460/A assessed as reduction in microbial growth incubated for 24 hrs by microdilution assay; format: functional
Cell membrane [24] = assay: Induction of cell envelope damage in Staphylococcus aureus assessed as membranous nanotubes extrude from dying/dead cells at 8 mg/L measured after 8 hrs by scanning electron microscope analysis
Escherichia coli [25] = assay: Antibacterial activity against Escherichia coli ATCC 25922 = CCM 3954 assessed as inhibition of bacterial growth incubated for 24 hrs in presence of BSA by microdilution assay; format: functional
Staphylococcus aureus [26] = assay: Antibacterial activity against wild type Staphylococcus aureus 4904/C assessed as reduction in microbial growth incubated for 24 hrs by microdilution assay; format: functional
Staphylococcus aureus [27] = assay: Antibacterial activity against wild type Staphylococcus aureus 4968/C assessed as reduction in microbial growth incubated for 24 hrs by microdilution assay; format: functional
Staphylococcus aureus [28] = assay: Antibacterial activity against Staphylococcus aureus ATCC 29213 = CCM 4223 assessed as inhibition of bacterial growth incubated for 24 hrs by microdilution assay; format: functional
[29] = Hemolytic activity in human RBC assessed as haemoglobin release measured after 3 hr; format: toxicity, cell-based, Erythrocyte; settings: red blood cells (erythrocytes)
Escherichia coli [30] = assay: Bactericidal activity against Escherichia coli CCM 3954 assessed as reduction in viable cell count measured after 24 hrs by Time kill assay; format: functional, organism-based; settings: dose 2-8 mg/L, DDE = dose-dependent effect
Staphylococcus aureus [31] = assay: microbe, parasite or virus in culture; settings: 4862/C, 24 h
Description: Antibacterial activity against wild type Staphylococcus aureus 4862/C assessed as reduction in microbial growth incubated for 24 hrs by microdilution assay

Pseudomonas aeruginosa [32] = assay: Antibacterial activity against Pseudomonas aeruginosa ATCC 27853 = CCM 3955 assessed as inhibition of bacterial growth incubated for 24 hrs by microdilution assay; format: functional
[33] = system: Staphylococcus epidermidis; assay: Antibacterial activity against Staphylococcus epidermidis CCM 7221 assessed as inhibition of bacterial growth incubated for 24 hrs by microdilution assay; format: functional
Staphylococcus aureus [34] = assay: Antibacterial activity against wild type Staphylococcus aureus 4740/B assessed as reduction in microbial growth incubated for 24 hrs by microdilution assay; format: functional
Escherichia coli [35] = assay: Antibacterial activity against multidrug-resistant Escherichia coli CE5556 expressing CTX-M-15 assessed as reduction in microbial growth incubated for 24 hrs by microdilution assay; format: functional
Staphylococcus aureus [36] = assay: Antibacterial activity against wild type Staphylococcus aureus 4515/A assessed as reduction in microbial growth incubated for 24 hrs by microdilution assay; format: functional
Staphylococcus aureus [37] = assay: Antibacterial activity against wild type Staphylococcus aureus 78/CF assessed as reduction in microbial growth incubated for 24 hrs by microdilution assay; format: functional
[38] = Gradient chromatographic hydrophobicity index of the compound at pH 3.7 by HPLC analysis; format: ADME
Staphylococcus aureus [39] = assay: Antibacterial activity against wild type Staphylococcus aureus 4504/A assessed as reduction in microbial growth incubated for 24 hrs by microdilution assay; format: functional
[40] = Toxicity in rabbit assessed as maximum tolerated dose administered orally; parameters: species or system Oryctolagus cuniculus; settings: in vivo, route po
[41] = Toxicity in rabbit assessed as skin irritation at 100 to 200 mg/L after administration bandaged for 4 hrs and measured after 1 to 72 hrs of contact time; parameters: species or system Oryctolagus cuniculus; settings: in vivo, topical_or_ocular, dose lower 100 mg/L, time lower 1 hrs, dose upper 200 mg/L, time upper 76 hrs
Staphylococcus aureus [42] = assay: Antibacterial activity against wild type Staphylococcus aureus 4566/A assessed as reduction in microbial growth incubated for 24 hrs by microdilution assay; format: functional
Staphylococcus aureus [43] = assay: Antibacterial activity against wild type Staphylococcus aureus 5079/C assessed as reduction in microbial growth incubated for 24 hrs by microdilution assay; format: functional
Staphylococcus aureus [44] = assay: Antibacterial activity against […] Staphylococcus aureus 4461/A assessed as reduction in microbial growth incubated for 24 hrs by microdilution assay; format: functional
Staphylococcus aureus [45] = assay: Antibacterial activity against wild type Staphylococcus aureus 4717/B assessed as reduction in microbial growth incubated for 24 hrs by microdilution assay; format: functional
[46] = Toxicity in rabbit assessed as maximum tolerated dose administered subcutaneously; parameters: species or system Oryctolagus cuniculus; settings: in vivo, route sc
Staphylococcus aureus [47] = assay: microbe, parasite or virus in culture; settings: 4880/C, 24 h
Description: Antibacterial activity against wild type Staphylococcus aureus 4880/C assessed as reduction in microbial growth incubated for 24 hrs by microdilution assay

Staphylococcus aureus [48] = assay: microbe, parasite or virus in culture; settings: 5017/C, 24 h
Description: Antibacterial activity against wild type Staphylococcus aureus 5017/C assessed as reduction in microbial growth incubated for 24 hrs by microdilution assay

[49] = Toxicity in rabbit assessed as eye irritation at 100 mg/L measured at 1 to 168 hrs; parameters: species or system Oryctolagus cuniculus; settings: in vivo, topical_or_ocular, time 1-168 hrs

In the case of `CCCCCCCCOP(=O)(CCN(CCCN)CCCN)OCCCCOP(=O)(CCN(CCCN)CCCN)OCCCCCCCC.Cl.Cl.Cl.Cl.Cl.Cl` (stereo unspecified), the MIC (Staphylococcus aureus [1]) is reported as 2 µg/mL, the Activity [2] is reported as “Non-Toxic” and the viability at 42 h [3] is reported as greater than 60%. It also gave an MIC (Enterococcus faecium) of 64 µg/mL, an MIC (Staphylococcus aureus [4]) of 2 µg/mL and an MIC (Pseudomonas aeruginosa [5]) of 4 µg/mL. The MIC (Escherichia coli [6]) was 2 µg/mL, the MIC (Staphylococcus aureus [7]) was 1 µg/mL and the MIC (Staphylococcus aureus [8]) was 2 µg/mL. The MIC (Staphylococcus aureus [9]) was 2 µg/mL, the MIC (Staphylococcus aureus [10]) was 2 µg/mL and the CC50 [11] was 95.9 µM. The Activity (Cell membrane [12]) was “Active”, the Activity (Staphylococcus aureus [13]) was “Dde” and the MIC (Enterococcus faecalis) was 4 µg/mL. For the same molecule, the MIC (Staphylococcus aureus [14]) was 1 µg/mL, the Activity [15] was “Non-Toxic” and the Activity (Cell membrane [16]) was “Active”. It also gave an MIC (Staphylococcus aureus [17]) of 1 µg/mL, an MIC (Staphylococcus aureus [18]) of 1 µg/mL and an MIC (Staphylococcus aureus [19]) of 2 µg/mL. For the same molecule, the Activity (Cell membrane [20]) was “Active”, the MIC (Staphylococcus aureus [21]) was 1 µg/mL and the MIC (Staphylococcus aureus [22]) was 2 µg/mL. For the same molecule, the MIC (Staphylococcus aureus [23]) was 1 µg/mL, the Activity (Cell membrane [24]) was “Active” and the MIC (Escherichia coli [25]) was 1 µg/mL. The MIC (Staphylococcus aureus [26]) was 1 µg/mL, the MIC (Staphylococcus aureus [27]) was 2 µg/mL and the MIC (Staphylococcus aureus [28]) was 2 µg/mL. For the same molecule, the HC50 at 3 h [29] was 263 µg/mL, the Activity (Escherichia coli [30]) was “Dde” and the MIC (Staphylococcus aureus [31]) was 1 µg/mL. The MIC (Pseudomonas aeruginosa [32]) was 4 µg/mL, the MIC [33] was 1 µg/mL and the MIC (Staphylococcus aureus [34]) was 1 µg/mL. For the same molecule, the MIC (Escherichia coli [35]) was 2 µg/mL, the MIC (Staphylococcus aureus [36]) was 1 µg/mL and the MIC (Staphylococcus aureus [37]) was 2 µg/mL. The CHI [38] was 35.3, the MIC (Staphylococcus aureus [39]) was 2 µg/mL and the MTD [40] was greater than 200 mg/kg. For the same molecule, the Activity [41] was “Non-Toxic”, the MIC (Staphylococcus aureus [42]) was 1 µg/mL and the MIC (Staphylococcus aureus [43]) was 1 µg/mL. It also gave an MIC (Staphylococcus aureus [44]) of 2 µg/mL, an MIC (Staphylococcus aureus [45]) of 1 µg/mL and an MTD [46] greater than 15 mg/kg. The MIC (Staphylococcus aureus [47]) was 1 µg/mL, the MIC (Staphylococcus aureus [48]) was 1 µg/mL and the Activity [49] was “Non-Toxic”.
